Results from patent US7442702B2, “Prostaglandin agonists” (priority 1997, dated 2008).

What was measured:
[1] = test system: expression of Bone Morphogenetic Protein 7 (BMP-7) in 293S cells transfected with EP2; test: Kidney regeneration assay: BMP-7 expression (Northern blot) in 293S cells transfected with EP2; assay type: cell-based, human; conditions: EP2 293S cells, 10^−6M, RNA extracted at 8, 16 and 24 hours
Description: (§1) Methods: 293S and EP293S cells are grown in Dulbecco's Modified Egale medium (DMEM, Gibco, BRL; Gaithersburg, Md.). […] Cells are harvested and RNA is extracted at 8, 16 and 24 hours. Northern blot analysis of total RNA ([…]) is carried out by probing the blots with ^32P-labeled BMP-7 probe. The blots are normalized for RNA loading by hybridization with ^32P-labeled 18s ribosomal RNA probe. […] Given the known role of BMP-7 in kidney regeneration and the ability of an prostaglandin agonist to induce BMP-7 expression in 293S kidney cells in a time and receptor specific manner indicates a role for prostaglandin agonist in kidney regeneration.

[2] = test system: expression of Bone Morphogenetic Protein 7 (BMP-7) in wild type 293S cells; test: Kidney regeneration assay: BMP-7 expression (Northern blot) in wild type 293S cells; assay type: cell-based, human; conditions: parental 293S cell line, 10^−6M, RNA extracted at 8, 16 and 24 hours
Description: as §1

Question: How did the “induction of expression of BMP-7” value [1] turn out when `CCCCC[C@H](O)/C=C/[C@H]1[C@H](O)CC(=O)[C@@H]1C/C=C\CCCC(=O)O` [PGE2, Prostaglandin E2] was run?
Answer: The value was “induce the expression of BMP-7 in the EP2 293S cells in a time dependent manner”.

Question: And the “induction of expression of BMP-7” value [2]?
Answer: The value was “generally not observed”.
